# Molecular target: T1, GABA-A receptor; alpha-3/beta-3/gamma-2 (Homo sapiens, UniProt P18507+P28472+P34903)
# T1 sequence (P18507 whole entry): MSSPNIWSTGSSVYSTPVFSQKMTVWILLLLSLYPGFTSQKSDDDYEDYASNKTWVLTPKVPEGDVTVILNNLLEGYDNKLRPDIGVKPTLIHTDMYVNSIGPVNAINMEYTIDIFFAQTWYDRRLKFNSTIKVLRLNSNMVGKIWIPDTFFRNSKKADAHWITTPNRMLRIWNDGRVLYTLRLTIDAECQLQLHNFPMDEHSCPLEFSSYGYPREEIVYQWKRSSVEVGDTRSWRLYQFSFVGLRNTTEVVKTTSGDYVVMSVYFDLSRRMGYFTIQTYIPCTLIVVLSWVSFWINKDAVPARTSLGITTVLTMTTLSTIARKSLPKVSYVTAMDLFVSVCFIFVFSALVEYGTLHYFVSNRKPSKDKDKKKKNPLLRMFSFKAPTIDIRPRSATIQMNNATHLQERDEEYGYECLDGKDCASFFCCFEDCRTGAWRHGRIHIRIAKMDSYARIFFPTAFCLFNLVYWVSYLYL
# T1 sequence (P28472 whole entry): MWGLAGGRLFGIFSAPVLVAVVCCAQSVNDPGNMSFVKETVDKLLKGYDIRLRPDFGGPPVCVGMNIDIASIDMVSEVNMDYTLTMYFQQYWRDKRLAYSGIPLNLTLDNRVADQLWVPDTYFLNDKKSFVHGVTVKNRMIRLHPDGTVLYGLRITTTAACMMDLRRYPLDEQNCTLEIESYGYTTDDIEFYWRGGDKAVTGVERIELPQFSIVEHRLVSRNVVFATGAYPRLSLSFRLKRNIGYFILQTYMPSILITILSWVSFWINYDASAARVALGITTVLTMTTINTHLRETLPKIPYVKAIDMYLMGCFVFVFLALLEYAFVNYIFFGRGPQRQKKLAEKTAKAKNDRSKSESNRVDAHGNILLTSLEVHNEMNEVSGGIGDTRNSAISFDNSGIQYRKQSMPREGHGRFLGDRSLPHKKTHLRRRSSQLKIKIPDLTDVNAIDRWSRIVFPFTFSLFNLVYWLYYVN
# T1 sequence (P34903 whole entry): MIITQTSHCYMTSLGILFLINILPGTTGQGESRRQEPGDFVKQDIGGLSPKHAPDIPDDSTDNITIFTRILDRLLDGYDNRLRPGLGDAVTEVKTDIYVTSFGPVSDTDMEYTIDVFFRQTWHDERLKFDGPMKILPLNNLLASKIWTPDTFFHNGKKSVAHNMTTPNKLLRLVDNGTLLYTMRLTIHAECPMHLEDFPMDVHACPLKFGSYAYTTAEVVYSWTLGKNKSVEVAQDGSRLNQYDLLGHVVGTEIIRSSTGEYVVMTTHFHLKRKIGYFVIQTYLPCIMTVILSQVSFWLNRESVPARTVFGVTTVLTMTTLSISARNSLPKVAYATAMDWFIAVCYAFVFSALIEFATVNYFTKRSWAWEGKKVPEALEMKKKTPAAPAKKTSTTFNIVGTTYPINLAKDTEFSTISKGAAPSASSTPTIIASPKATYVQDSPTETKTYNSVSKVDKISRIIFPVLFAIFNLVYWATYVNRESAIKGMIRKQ
# Test: Binding affinity for human GABA-A receptor alpha-3-beta-3-gamma-2 subunits in L(tk-) cells
# Assay type: cell-based
row,SMILES,Ki [nM]
1,c1ccc(CSc2nn3c(-c4ccccc4)nnc3c3ccccc23)cc1,> 1000
2,CCCc1nnc2c3ccccc3c(OCc3ccccn3)nn12,52
3,CN(C)Cc1nnc2c3ccccc3c(OCc3ccccn3)nn12,840
4,c1ccc(CNc2nn3c(-c4ccccc4)nnc3c3ccccc23)cc1,> 1000
5,COCCN(CCOC)c1nn2c(-c3ccc(OC)cc3)nnc2c2ccccc12,41
6,c1ccc(CCCOc2nn3c(-c4ccccc4)nnc3c3ccccc23)cc1,420
7,c1ccc(-c2nnc3c4ccccc4c(OCc4cccnn4)nn23)cc1,0.37
8,c1ccc(-c2nnc3c4ccccc4c(OCc4ccncc4)nn23)cc1,7.7

# Second part, the compound after the results:
row,Ki [nM],SMILES
1,0.71,c1ccc(-c2nnc3c4ccccc4c(OCc4cnccn4)nn23)cc1
2,53,CCc1nnc2c3ccccc3c(OCc3ccccn3)nn12
3,66,COc1cccc(COc2nn3c(-c4ccccc4)nnc3c3ccccc23)c1
4,260,Clc1ccccc1COc1nn2c(-c3ccccc3)nnc2c2ccccc12
5,240,c1ccc(-c2nnc3c4ccccc4c(OCc4ccsc4)nn23)cc1
6,> 1000,COc1ccc(-c2nnc3c4ccccc4c(=O)n(Cc4ccccc4)n23)cc1
7,23,c1ccc(COc2nn3c(C4CCC4)nnc3c3ccccc23)nc1
8,1400,O=C1c2ccccc2C(=O)N1CCn1c(=O)c2ccccc2c(=O)n1Cc1ccccc1
9,17,c1ccc(-c2nnc3c4ccccc4c(OCCc4ccccn4)nn23)cc1
10,1.3,c1ccc(-c2nnc3c4ccccc4c(OCc4ccncn4)nn23)cc1

# Molecular target: T2, GABA-A receptor; alpha-5/beta-3/gamma-2 (Homo sapiens, UniProt P18507+P28472+P31644)
# T2 sequence (P18507 whole entry): T1 sequence (P18507 whole entry)
# T2 sequence (P28472 whole entry): T1 sequence (P28472 whole entry)
# T2 sequence (P31644 whole entry): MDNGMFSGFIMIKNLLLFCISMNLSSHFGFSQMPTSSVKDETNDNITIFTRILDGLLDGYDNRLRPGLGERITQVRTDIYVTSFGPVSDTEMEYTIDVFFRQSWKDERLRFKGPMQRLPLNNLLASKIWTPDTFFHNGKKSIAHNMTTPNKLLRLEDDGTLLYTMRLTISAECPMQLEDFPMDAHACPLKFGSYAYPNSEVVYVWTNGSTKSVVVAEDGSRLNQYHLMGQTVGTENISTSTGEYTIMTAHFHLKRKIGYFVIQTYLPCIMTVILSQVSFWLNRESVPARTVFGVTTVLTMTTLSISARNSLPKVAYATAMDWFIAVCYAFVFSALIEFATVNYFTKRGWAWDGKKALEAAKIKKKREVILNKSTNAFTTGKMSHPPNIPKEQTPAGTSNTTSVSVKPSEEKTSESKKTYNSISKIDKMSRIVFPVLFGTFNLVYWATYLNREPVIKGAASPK
# Test: Binding affinity for human GABA-A receptor alpha-5-beta-3-gamma-2 subunits in L(tk-) cells
# Assay type: cell-based
row,SMILES,Ki [nM]
1,c1ccc(CSc2nn3c(-c4ccccc4)nnc3c3ccccc23)cc1,> 1000
2,CCCc1nnc2c3ccccc3c(OCc3ccccn3)nn12,19
3,CN(C)Cc1nnc2c3ccccc3c(OCc3ccccn3)nn12,160
4,c1ccc(CNc2nn3c(-c4ccccc4)nnc3c3ccccc23)cc1,> 1000
5,COCCN(CCOC)c1nn2c(-c3ccc(OC)cc3)nnc2c2ccccc12,80
6,c1ccc(CCCOc2nn3c(-c4ccccc4)nnc3c3ccccc23)cc1,> 1000
7,c1ccc(-c2nnc3c4ccccc4c(OCc4cccnn4)nn23)cc1,0.15
8,c1ccc(-c2nnc3c4ccccc4c(OCc4ccncc4)nn23)cc1,6.1

# Now from value to compound:
row,Ki [nM],SMILES
1,0.36,c1ccc(-c2nnc3c4ccccc4c(OCc4cnccn4)nn23)cc1
2,16,CCc1nnc2c3ccccc3c(OCc3ccccn3)nn12
3,150,COc1cccc(COc2nn3c(-c4ccccc4)nnc3c3ccccc23)c1
4,560,Clc1ccccc1COc1nn2c(-c3ccccc3)nnc2c2ccccc12
5,250,c1ccc(-c2nnc3c4ccccc4c(OCc4ccsc4)nn23)cc1
6,> 1000,COc1ccc(-c2nnc3c4ccccc4c(=O)n(Cc4ccccc4)n23)cc1
7,5.1,c1ccc(COc2nn3c(C4CCC4)nnc3c3ccccc23)nc1
8,4800,O=C1c2ccccc2C(=O)N1CCn1c(=O)c2ccccc2c(=O)n1Cc1ccccc1
9,15,c1ccc(-c2nnc3c4ccccc4c(OCCc4ccccn4)nn23)cc1
10,0.5,c1ccc(-c2nnc3c4ccccc4c(OCc4ccncn4)nn23)cc1

# Molecular target: T3, GABA-A receptor; alpha-2/beta-3/gamma-2 (Homo sapiens, UniProt P18507+P28472+P47869)
# T3 sequence (P18507 whole entry): T1 sequence (P18507 whole entry)
# T3 sequence (P28472 whole entry): T1 sequence (P28472 whole entry)
# T3 sequence (P47869 whole entry): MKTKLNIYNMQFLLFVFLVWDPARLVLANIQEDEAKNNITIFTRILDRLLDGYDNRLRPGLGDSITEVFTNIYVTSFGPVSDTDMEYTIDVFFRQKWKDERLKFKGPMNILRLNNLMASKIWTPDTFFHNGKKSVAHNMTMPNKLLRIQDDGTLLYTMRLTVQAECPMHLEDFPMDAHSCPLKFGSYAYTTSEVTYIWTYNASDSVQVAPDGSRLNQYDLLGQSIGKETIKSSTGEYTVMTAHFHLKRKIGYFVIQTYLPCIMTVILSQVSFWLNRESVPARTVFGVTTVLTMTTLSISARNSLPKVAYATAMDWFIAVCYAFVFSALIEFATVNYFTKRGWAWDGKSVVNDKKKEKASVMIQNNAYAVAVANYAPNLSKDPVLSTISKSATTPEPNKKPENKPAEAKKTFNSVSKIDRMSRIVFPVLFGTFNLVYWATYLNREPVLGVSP
# Test: Binding affinity for human GABA-A receptor alpha-2-beta-3-gamma-2 subunits in L(tk-) cells
# Assay type: cell-based
row,SMILES,Ki [nM]
1,c1ccc(CSc2nn3c(-c4ccccc4)nnc3c3ccccc23)cc1,> 1000
2,CCCc1nnc2c3ccccc3c(OCc3ccccn3)nn12,120
3,CN(C)Cc1nnc2c3ccccc3c(OCc3ccccn3)nn12,620
4,c1ccc(CNc2nn3c(-c4ccccc4)nnc3c3ccccc23)cc1,> 1000
5,COCCN(CCOC)c1nn2c(-c3ccc(OC)cc3)nnc2c2ccccc12,41
6,c1ccc(CCCOc2nn3c(-c4ccccc4)nnc3c3ccccc23)cc1,> 1000
7,c1ccc(-c2nnc3c4ccccc4c(OCc4ccncc4)nn23)cc1,11

# Other lines, results leading:
row,Ki [nM],SMILES
1,1.6,c1ccc(-c2nnc3c4ccccc4c(OCc4cnccn4)nn23)cc1
2,130,CCc1nnc2c3ccccc3c(OCc3ccccn3)nn12
3,170,COc1cccc(COc2nn3c(-c4ccccc4)nnc3c3ccccc23)c1
4,580,Clc1ccccc1COc1nn2c(-c3ccccc3)nnc2c2ccccc12
5,510,c1ccc(-c2nnc3c4ccccc4c(OCc4ccsc4)nn23)cc1
6,> 1000,COc1ccc(-c2nnc3c4ccccc4c(=O)n(Cc4ccccc4)n23)cc1
7,24,c1ccc(COc2nn3c(C4CCC4)nnc3c3ccccc23)nc1
8,1800,O=C1c2ccccc2C(=O)N1CCn1c(=O)c2ccccc2c(=O)n1Cc1ccccc1
9,25,c1ccc(-c2nnc3c4ccccc4c(OCCc4ccccn4)nn23)cc1
10,2.9,c1ccc(-c2nnc3c4ccccc4c(OCc4ccncn4)nn23)cc1

# Molecular target: T4, GABA-A receptor; alpha-1/beta-3/gamma-2 (Homo sapiens, UniProt P14867+P18507+P28472)
# T4 sequence (P14867 whole entry): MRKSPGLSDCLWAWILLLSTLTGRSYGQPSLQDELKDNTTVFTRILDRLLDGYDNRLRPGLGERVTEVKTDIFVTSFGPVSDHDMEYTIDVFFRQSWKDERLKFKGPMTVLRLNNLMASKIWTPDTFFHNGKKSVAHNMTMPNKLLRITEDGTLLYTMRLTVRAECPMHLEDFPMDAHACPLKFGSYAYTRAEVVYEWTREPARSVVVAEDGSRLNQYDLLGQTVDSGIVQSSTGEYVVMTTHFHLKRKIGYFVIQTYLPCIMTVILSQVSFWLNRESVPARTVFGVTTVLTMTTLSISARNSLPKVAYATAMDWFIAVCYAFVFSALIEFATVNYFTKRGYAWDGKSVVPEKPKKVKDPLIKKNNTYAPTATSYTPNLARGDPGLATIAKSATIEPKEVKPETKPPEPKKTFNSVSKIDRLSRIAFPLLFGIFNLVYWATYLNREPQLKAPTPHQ
# T4 sequence (P18507 whole entry): T1 sequence (P18507 whole entry)
# T4 sequence (P28472 whole entry): T1 sequence (P28472 whole entry)
# Test: Binding affinity for human GABA-A receptor alpha-1-beta-3-gamma-2 subunits in L(tk-) cells
row,SMILES,Ki [nM]
1,c1ccc(CSc2nn3c(-c4ccccc4)nnc3c3ccccc23)cc1,> 1000
2,CCCc1nnc2c3ccccc3c(OCc3ccccn3)nn12,160
3,CN(C)Cc1nnc2c3ccccc3c(OCc3ccccn3)nn12,140
4,c1ccc(CNc2nn3c(-c4ccccc4)nnc3c3ccccc23)cc1,> 1000
5,c1ccc(CCCOc2nn3c(-c4ccccc4)nnc3c3ccccc23)cc1,300
6,c1ccc(-c2nnc3c4ccccc4c(OCc4cccnn4)nn23)cc1,0.82
7,c1ccc(-c2nnc3c4ccccc4c(OCc4ccncc4)nn23)cc1,24

# Continued, values first:
row,Ki [nM],SMILES
1,2,c1ccc(-c2nnc3c4ccccc4c(OCc4cnccn4)nn23)cc1
2,250,CCc1nnc2c3ccccc3c(OCc3ccccn3)nn12
3,800,COc1cccc(COc2nn3c(-c4ccccc4)nnc3c3ccccc23)c1
4,> 1000,Clc1ccccc1COc1nn2c(-c3ccccc3)nnc2c2ccccc12
5,710,c1ccc(-c2nnc3c4ccccc4c(OCc4ccsc4)nn23)cc1
6,> 1000,COc1ccc(-c2nnc3c4ccccc4c(=O)n(Cc4ccccc4)n23)cc1
7,56,c1ccc(COc2nn3c(C4CCC4)nnc3c3ccccc23)nc1
8,18,c1ccc(-c2nnc3c4ccccc4c(OCCc4ccccn4)nn23)cc1
9,2.3,c1ccc(-c2nnc3c4ccccc4c(OCc4ccncn4)nn23)cc1
